# Measured values as given in patent publication US6458585B1, “Cytokine-free culture of dendritic cells” (Nexell Therapeutics Inc., priority 1996, dated 2002).
# Experiments:
# Assay type in all cases: cell-based, human
# [1] = test system: Bulk PBMNC; assay: Concentration, viability and total cells of bulk PBMNC cultured with non-cytokine additives in PL2417; conditions: Day 7, PL2417 container, X-VIVO 15
# Protocol: (§1) Culture of Bulk PBMNC: PBMNC cells were cultured in X-VIVO 15™ supplemented with 2 mM L- glutamine. Cultures were initiated at 5×^05 cells/ml in PL2417 gas-permeable containers (20 ml). GM-CSF and IL-4 were added to the cultures at final concentrations of 50 ng/ml and 1000 U/ml or non-cytokine additives such as Vitamin D3 at 2.5 uM, Vitamin E at 0.1%, Linoleic Acid at 5 ug/ml, or Ca++ Ionophore at 10 mM. Addition and subtraction of cells, media, and growth factors to and from PL2417 gas-permeable containers was accomplished by spiking a Sampling Site Coupler into the sample port of the container followed by use of syringes and needles. Cells were cultured in a 5% CO2, ambient O2, 37° C. humidified incubator for 7 days.
# The next set of experiments evaluated only 4 of the non-cytokine additives. These 4 were determined to have the highest ability to induce DC generation from PBMNC. The 4 non-cytokine additives examined were Vitamin D3, Vitamin E, Ca^++ Ionophore, and Linoleic Acid. These additives were compared to GM-CSF/IL-4. Bulk PBMNC were initiated at 5×10^5 cells/ml in X-VIVO 15™ using PL2417 gas-permeable containers (20 ml per container).
# [2] = test system: Bulk PBMNC; assay: S100+ cells in bulk PBMNC cultures with non-cytokine additives; conditions: for % S100+: Day 7; for TOTAL # OF S100+: Day 7, projected in culture
# Protocol: (§2) Immunocytochemical staining: PBS (phosphate buffered saline) was made by dissolving 5 PBS tablets into 1000 ml millipore water. Cytospin slides were soaked in PBS. Endogenous peroxidase activity was blocked by treating slides with hydrogen peroxide/PBS (2 ml 30% H2O2+30 ml PBS) for 10 min. Slides were rinsed with PBS one time. Non-specific binding sites were blocked by incubating with normal serum matching source of secondary antibody (i.e. if secondary antibody is biotinylated goat-anti-mouse, used normal goat serum) at room temp. for 15 min. in a humidified environment. Excess serum was shaken from slides and placed 100 ul of primary antibody on slide, making sure cells are covered with liquid and incubated in humidified environment, room temp, for one hour. Negative control slides were incubated with normal serum for this hour. Slides were rinsed 3 times with PBS. Slides were incubated with biotinylated antibody reactive against the primary antibody (i.e. if primary antibody is mouse-anti-human, use a biotinylated goat-anti-mouse antibody) for 1 hour in humidity. Slides were rinsed 3 times with PBS. Slides were incubated with streptavidin-peroxidase, 2 drops/slide, for 30 min. in humidity. Slides were rinsed 3 times with PBS.
# (§3) Chromagen solution was made with 5 ml millipore water+2 drops of chromagen buffer+1 drop of concentrated chromagen+1 drop of substrate, and 4-5 drops were added to each slide. […] Slides were counterstained with hematoxylin for about 5 min, or until cell nuclei were stained purple. Cells were rinsed with tap water and allowed to air dry. Slides were covered with crystal mount and oven dried at 80 degrees for 15 min. Slides were allowed to cool, then coversliped with mounting medium.
# as §1
# (§4) Cytospin slide preparation, Wright-Geimsa and immunohistochemical staining of the cultured cells were conducted as described in Example 1 and 2 above. Mixed lymphocyte reactions (MLR's) were setup using T cells (responders) and dendritic cell enriched cultures (stimulators) from bulk PBMNC cultures, as described above in Example 1.
# The S100 protein is a nerve cell protein that has been associated with dendritic cells. In Table 47, at day 7 of culture, the highest percent of S100+ cells was present in the GM-CSF/IL-4 culture (13%).
# [3] = test system: adherent PBMNC; assay: Cell counts and viability of plastic adherent cells cultured with non-cytokine additives in polystyrene plates; set-up: % VIABLE: concentration or dose not given beside the values; conditions: for % VIABLE: propidium iodide
# Protocol: Viability Determination: Prior to acquisition, 5 ul propidium iodide (PI) was added to each tube for use as a viability check. The cells were vortexed and acquired within 10 min of PI addition.
# (§5) Enrichment and Culture of Adherent Cells Using Polystyrene Tissue Culture Plates: PBMNC were resuspended in culture media (X-VIVO 15™+10% autologous serum) at 2×10^6 cells/ml. Cells were placed into 48 well polystyrene tissue culture plates […] and incubated for 2 hours in a 5% CO2, ambient O2, 37° C. humidified incubator. Non-adherent cells were removed from the plates then wells were rinsed with X-VIVO 15™ containing no serum. Cells remaining in the wells were adherent cells. These cells were cultured by adding 2 ml of X-VIVO 15™ to each well plus GM-CSF and IL-4 at final concentrations of 50 ng/ml and 1000 U/ml or the following: cAMP at 0.5 mM, dibutyryl cAMP at 0.1 mM, NaF at 0.25 mM, theophylline at 0.5 mM, PGE at 0.1 mM, Vitamin D3 at 2.5 uM, Vitamin E at 0.1%, Retinoic Acid at 10^−6 M, PMA at 1 pM, Linoleic Acid at 5 ug/ml, or Ca^++ Ionophore at 10 mM. Furthermore, cells were also cultured with the above non-cytokine additives plus GM-CSF at 50 ng/ml. Cells were cultured in a 5% CO2, ambient O2, 37° C. humidified incubator for 7 days.
# (§6) Results: In the set of experiments using plastic adherent cells grown in polystyrene tissue culture plates, a Day 0 analysis of the cells was not performed. However, these cultures were analyzed for the presence of DC on days 4 and 7. Analysis perfomed were cell counts, viability via propidium iodide, morphology under Wright-Geimsa staining, and immunohistochemical staining using an anti-S100 antibody.
# [4] = test system: adherent PBMNC; assay: S100 immunohistochemistry of plastic adherent cells cultured with non-cytokine additives; conditions: for percentage of S100+ cells: without GM-CSF added to additives
# Protocol: as §2, with “Endogenous peroxidase activity was blocked by treating slides with hydrogen peroxide/PBS (2 ml 30% H2O2+30 ml PBS) for 10 min.” left out
# as §3, §5, §4, §6
# [5] = test system: adherent PBMNC; assay: DC morphology (Wright-Geimsa) of plastic adherent cells cultured with non-cytokine additives
# Protocol: (§7) Cytofunnels were attached to microscope slides. 50,000 to 100,000 cells were removed from each culture and resuspended in approximately 100 to 200 ul of PBS-CMF. Slides were placed in the Cytospin® centrifuge and spun at 100 rpm for 4 min. Cytofunnels were removed from the slides and the slides were air dried for 1 minute. Ten drops of Wright-Geimsa stain were placed onto each slide and allowed to fix for 1 to 2 minutes. Ten drops of water were added to each slide and allowed to sit for 2 to 4 minutes. The slides were rinsed and air dried.
# (§8) Reading of Cytospin Slides: Slides were read under phase contrast microscopy, 40× and 60× oil magnification. One hundred cells were identified and characterized morphologically as either dendritic cells or non-dendritic cells (lymphocytes and monocyte, or CD34+-derived cells in those cases). Digital images were taken using a color monitor and color video printer.
# as §5, §4, §6
# [6] = test system: Bulk PBMNC; assay: Morphologically identified dendritic cells in bulk PBMNC cultures with non-cytokine additives
# Protocol: as §7, §8, §1, §4
# [7] = test system: T cells; assay: Allogeneic MLR with bulk PBMNC cultures grown with non-cytokine additives
# Protocol: MLR's were setup using T cells as responders and dendritic cell enriched cultures as antigen presenters. Sheep red blood cells were prepared and used to erythrocyte rosette T cells from a MNC preparation as described in “Current Protocols in Immunology”, John Wiley & Sons Inc, 1995. Vol. 2, 7.2.1-7.2.4. Erythrocyte+(E+ ) T cells were resuspended to 1×10^6 cells/ml in RPMI 1640/10% FCS. Dendritic cells were resuspended to 1×10^6 cells/ml in RPMI 1640/10% FCS and mitomycin C was added at 25 ug/ml to inhibit proliferation. The tubes were incubated at 37° C. for 30 min. then washed 3 times with PBS-CMF/1% HA. […] […] The appropriate control wells were also prepared. Plates were incubated for 4 or 5 days at 37° C.
# Each well was pulsed with 1 uCi of ^3H-thymidine in RPMI 1640/10% FCS. Plates were incubated overnight at 37° C.
# Plates were harvested onto glass fiber filter strips using a cell harvester. Discs were placed into scintillation vials containing scintillation cocktail and samples were counted using a beta radiation counter.
# as §4
# The functional capacity of cultured cells to induce T cell proliferation was measured in an allogeneic MLR. […] At the greatest ratio of 1:100, the differences in capacity to induce T cell proliferation is marginal between the GM-CSF/IL-4 cultured cells and the non-cytofine additive cultured cells.
# [8] = test system: Bulk PBMNC; assay: Flow cytometry phenotype of bulk PBMNC cultures with non-cytokine additives; conditions: Day 7
# Protocol: as §1
# Cultured cells were phenotyped as described in Example 1 above for the following markers: […]
smiles,measurement,setting,value
CCCCC/C=C\C/C=C\CCCCCCCC(=O)O [Linoleio Acid],TOTAL CELLS,[1],9.18E + 06
same,VIABILITY,[1],87.77%
same,% S100+,[2],8.50%
same,TOTAL # OF S100+,[2],7.75E + 05
CNc1ccc2oc(CC3OC4(CCC3C)OC(C(C)C(=O)c3ccc[nH]3)C(C)CC4C)nc2c1C(=O)O (stereo not shown) [Ca ++ Iono],TOTAL CELLS,"[3]; Day 4, without GM-CSF",1.69E + 05
same,% VIABLE,"[3]; Day 4, without GM-CSF",74.04%
same,TOTAL CELLS,"[3]; Day 7, with GM-CSF present",1.05E + 05
same,% VIABLE,"[3]; Day 7, with GM-CSF present",82.69%
same,% S100+,"[4]; Day 4, without GM-CSF",17.00%
same,% S100+,"[4]; Day 7, with GM-CSF present",26.50%
same,% DC,"[5]; Day 4, without GM-CSF",2.50%
same,% DC,"[5]; Day 7, with GM-CSF present",4.50%
same,CELLS/ML,[1],2.22E + 06 cells/ml
same,TOTAL CELLS,[1],8.29E + 06
same,VIABILITY,[1],83.72%
same,% S100+,[2],7.50%
same,TOTAL # OF S100+,[2],6.17E + 05
CNc1ccc2oc(CC3OC4(CCC3C)OC(C(C)C(=O)c3ccc[nH]3)C(C)CC4C)nc2c1C(=O)O (stereo not shown) [Ca++ Iono],% DC,[6]; Day 7,7.00%
same,TOTAL # OF DC,"[6]; Day 7, projected in culture",5.74E+05
same,Allogeneic MLR. Increase Over Background Proliferation,"[7]; Day 7, Cell Culture:T cell Ratio 1:1",4.8
same,Allogeneic MLR. Increase Over Background Proliferation,"[7]; Day 7, Cell Culture:T cell Ratio 1:10",1.8
same,Allogeneic MLR. Increase Over Background Proliferation,"[7]; Day 7, Cell Culture:T cell Ratio 1:100",0.9
CNc1ccc2oc(CC3OC4(CCC3C)OC(C(C)C(=O)c3ccc[nH]3)C(C)CC4C)nc2c1C(=O)O (stereo not shown) [Ca ++ lono],Percent of Phenotype in Culture: CD1a-PE,[8],0.04%
same,Percent of Phenotype in Culture: CD14-PE,[8],0.26%
same,Percent of Phenotype in Culture: CD80-PE,[8],2.21%
same,Percent of Phenotype in Culture: CD86-PE,[8],2.32%
"CNc1ccc2oc(C[C@H]3O[C@@]4(CC[C@H]3C)O[C@H]([C@H](C)C(=O)c3ccc[nH]3)[C@H](C)C[C@H]4C)nc2c1C(=O)O [Ca^++ Ionophore, A23187]",percentage of S100+ cells,[4]; day 4,17%
same,percentage of S100+ cells,[4]; day 7,next highest percentages
same,morphologically identified DC,"[5]; day 7, without GM-CSF added to additives",next highest percentages
same,percent of S100+ cells,"[2]; day 7, average",equivalent average percentages
same,fold fewer DC (average total number projected in culture) than GM-CSF/IL-4 cultures,[6]; day 7,approximately 4 fold
